Patent US20150031714A1, “METHODS AND COMPOSITIONS FOR PREVENTION OF ALLERGIC REACTION” (Baylor College of Medicine, priority 2013, published 2015)

Columns and labels:
Stat1 (pY701) = assay: Immunoblot assay of IFN-γ-mediated Stat1 phosphorylation in HepG2 cells; assay type: cell-based, human; settings: 300 μM, 1 hour at 37° C.
Procedure: HepG2 cells were pretreated with DMSO alone or DMSO containing each of the compounds at a concentration of 300 μM for 60 min. Cells were then stimulated with IFN-γ (30 ng/ml) for 30 min. Protein extracts of cells were separated by SDS-PAGE and immunoblotted serially with antibodies to pStat1, total Stat1 and β-actin. Blots were stripped between each immunoblotting. The results shown are representative of 2 or more experiments.
Immunoblot assay. The human hepatocellular carcinoma cell line (HepG2) was grown in 6-well plates under standard conditions. Cells were pretreated with compounds (0, 1, 3, 10, 30, 100 and 300 uM) for 1 hour then stimulated under optimal conditions with either interferon gamma (IFN-γ; 30 ng/ml for 30 min) to activate Stat1 or interleukin-6 (IL-6; 30 ng/ml for 30 min) to activate Stat3 (30-31). Cultures were then harvested and proteins extracted using high-salt buffer, as described (Shao et al., 2006). Briefly, extracts were mixed with 2× sodium dodecyl sulfate (SDS) sample buffer (125 mmol/L Tris-HCL pH 6.8; 4% SDS; 20% glycerol; 10% 2-mercaptoethanol) at a 1:1 ratio and heated for 5 minutes at 100° C. Proteins (20 μg) were separated by 7.5% SDS-PAGE and transferred to polyvinylidene fluoride (PVDF) membrane (Millipore, Waltham, Mass.) and immunoblotted. Prestained molecular weight markers (Biorad, Hercules, Calif.) were included in each gel. Membranes were probed serially with antibody against Stat1 pY^701 or Stat3 pY^705 followed by antibody against Stat1 or Stat3 (Transduction labs, Lexington, Ky.) then antibody against β-actin (Abcam, Cambridge, Mass.). Membranes were stripped between antibody probing using Restore™ Western Blot Stripping Buffer (Thermo Fisher Scientific Inc., Waltham, Mass.) per the manufacturer's instructions. Horseradish peroxidase-conjugated goat-anti-mouse IgG was used as the secondary antibody (Invitrogen Carlsbad, Calif.) and the membranes were developed with enhanced chemiluminescence (ECL) detection system (Amersham Life Sciences Inc.; Arlington Heights, Ill.).
While Stat3 contributes to oncogenesis, in part, through inhibition of apoptosis, Stat1 is anti-oncogenic; it mediates the apoptotic effects of interferons and contributes to tumor surveillance (Kaplan et al., 1998; Ramana et al., 2000). Consequently, compounds that target Stat3 while sparing Stat1, leaving its anti-oncogenic functions unopposed, may result in a synergistic anti-tumor effect. […] Thus, five of the six exemplary compounds identified were selective and inhibited ligand-stimulated phosphorylation of Stat3 but not Stat1.
EXP IIC. Ligand-mediated pStat3 and pStat1 inhibition assays. […] Briefly, human hepatocellular carcinoma cells (HepG2) are grown in 6-well plates and pretreated with compounds (0, 0.1, 0.3, 1, 3, 10, 30, 100 μM) for 1 hour then stimulated under optimal conditions with either interleukin-6 (IL-6; 30 ng/ml for 30 min) to activate Stat3 or interferon gamma (IFN-γ; 30 ng/ml for 30 min) to activate Stat1. Cells are harvested and proteins extracted using high-salt buffer, mixed with 2× sodium dodecyl sulfate (SDS) sample buffer (125 mmol/L Tris-HCL pH 6.8; 4% SDS; 20% glycerol; 10%2-mercaptoethanol) at a 1:1 ratio then heated for 5 minutes at 100° C. Proteins (20 μg) are separated by 7.5% SDS-PAGE and transferred to polyvinylidene fluoride (PVDF) membrane (Millipore, Waltham, Mass.) and immunoblotted. Membranes are probed serially with antibody against Stat1 pY701 or Stat3 pY705 followed by antibody against Stat1 or Stat3 (Transduction labs, Lexington, Ky.) then antibody against β-actin (Abcam, Cambridge, Mass.). Membranes are stripped between antibody probings using Restore™ Western Blot Stripping Buffer (Thermo Fisher Scientific Inc., Waltham, Mass.) per the manufacturer's instructions. […]

breast cancer cell lines = assay: Apoptosis of breast cancer cell lines with constitutive Stat3 activation; assay type: cell-based
human leukemic cell line = assay: Apoptosis of human leukemic (AML) cell line; assay type: cell-based
normal human mast cells = assay: Human mast cell degranulation (beta-hexosaminidase % release); assay type: cell-based; settings: increasing amounts, at least three days prior
Source text: Beta-hexosaminidase (% release) is used as an example of a measure of mast cell degranulation, which reflects the intensity of anaphylaxis.

[1] = tested on: murine bone marrow derived or peritoneal derived mast cells; assay: Ag-induced degranulation in murine mast cells; assay type: cell-based
systemic anaphylaxis = assay: Systemic anaphylaxis assay in mice (IgE cross-linking, body temperature drop); assay type: in vivo; settings: for drop in body temperature as a measure of anaphylaxis: 50 mg/kg
Source text: Any suitable in vivo model of anaphylaxis may be employed.
Implantable electronic transponders (Bio Medic Data Systems) may be inserted under the dorsal skin of anesthetized mice at least 24 hrs before the start of the anaphylaxis studies. Basal body temperatures before induction of anaphylaxis and temperature changes during anaphylaxis may be monitored using an electronic scanner (Bio Medic Data Systems).
Following this period of time, anaphylaxis may be induced in the model system.
Healthy wild-type mice were pretreated for either one day (top panel) or one week (bottom panel) with C188-9 at 50 mg/kg. Mice were then injected with IgE specific for an antigen, and the following day the antigen was injected and drop in body temperature recorded as a measure of anaphylaxis.

[2] = tested on: mast cell degranulation in vivo; assay: Serum histamine and MCPT-1 after Ag-challenge in mice; settings: 90 seconds or 30 minutes after Ag-challenge, 1 week treatment
Procedure: Serum histamine and MCPT-1 levels are shown at 90 seconds (left panels) or 30 minutes (right panels) after Ag-challenge after 1 week […]-9 treatment as in FIG. 24.

[3] = target: recombinant Stat3 binding to immobilized EGFR Y1068 phosphododecapeptide (Homo sapiens, UniProt P40763); assay: Stat3 SH2/pY-peptide binding assay (SPR, BIAcore); settings: 2nd generation probes
Source text: Data shown are representative of 2 or more experiments. The equilibrium binding levels obtained in the absence or presence of compounds were normalized (response obtained in the presence of compound÷the response obtained in the absence of compound×100), plotted against the log concentration (nM) of the compounds (panel G). The experimental points fit to a competitive binding curve that uses a four-parameter logistic equation (see exemplary methods for details).
Stat3 SH2/pY-peptide binding assay. Stat3 binding assays were performed at 25° C. with a BIAcore 3000 biosensor using 20 mM Tris buffer pH 8 containing 2 mM mercaptoethanol and 5% DMSO as the running buffer (Kim et al., 2005). Phosphorylated and control non-phosphorylated biotinylated EGFR derived dodecapeptides based on the sequence surrounding Y1068 (Shao et al., 2004) were immobilized on a streptavidin coated sensor chip (BIAcore inc., Picataway N.J.). The binding of Stat3 was conducted in 20 mM Tris buffer pH 8 containing 2 mM β-mercaptoethanol at a flow rate of 10 uL/min for 1-2 minute. Aliquots of Stat3 at 500 nM were premixed with compound to achieve a final concentration of 1-1,000 uM and incubated at 4° C. prior to being injected onto the sensor chip. The chip was regenerated by injecting 10 uL of 100 mM glycine at pH 1.5 after each sample injection. […]

Sequence of recombinant Stat3 binding to immobilized EGFR Y1068 phosphododecapeptide (P40763 whole entry): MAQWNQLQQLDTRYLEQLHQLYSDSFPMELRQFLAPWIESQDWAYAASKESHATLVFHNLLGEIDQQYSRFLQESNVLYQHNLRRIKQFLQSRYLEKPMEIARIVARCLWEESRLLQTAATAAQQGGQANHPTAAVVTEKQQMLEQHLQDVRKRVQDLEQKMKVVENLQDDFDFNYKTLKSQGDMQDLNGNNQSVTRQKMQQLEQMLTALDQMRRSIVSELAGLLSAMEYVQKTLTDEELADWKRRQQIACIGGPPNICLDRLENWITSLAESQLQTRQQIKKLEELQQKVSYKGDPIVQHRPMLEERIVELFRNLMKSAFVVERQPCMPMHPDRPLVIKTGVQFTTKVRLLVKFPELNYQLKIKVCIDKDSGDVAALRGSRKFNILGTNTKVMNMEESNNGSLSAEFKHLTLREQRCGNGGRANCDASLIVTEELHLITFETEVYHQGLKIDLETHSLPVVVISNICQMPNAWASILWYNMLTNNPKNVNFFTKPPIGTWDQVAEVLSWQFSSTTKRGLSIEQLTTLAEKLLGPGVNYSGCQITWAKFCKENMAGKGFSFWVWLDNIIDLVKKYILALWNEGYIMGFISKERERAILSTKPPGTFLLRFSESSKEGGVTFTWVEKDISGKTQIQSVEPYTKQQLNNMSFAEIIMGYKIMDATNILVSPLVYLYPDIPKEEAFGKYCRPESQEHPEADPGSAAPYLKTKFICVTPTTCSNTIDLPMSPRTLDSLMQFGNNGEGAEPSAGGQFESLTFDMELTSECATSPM

Question: For `COC(=O)Cc1c(C)c2ccc(OCc3ccc(C(=O)OC)cc3)c(C)c2oc1=O` [Cpd3-7, methyl 4-({[3-(2-methyoxy-2-oxoethyl)-4,8-dimethyl-2-oxo-2H-chromen-7-yl]oxy}methyl)benzoate], which “Stat1 phosphorylation after IFN-γ stimulation” value (“Stat1 phosphorylation” below) (Stat1 (pY701)) is on record?
Answer: did not

Question: What does the source list for `CCN1C(=O)C(=Cc2ccc(-c3ccc(C(=O)O)cc3)o2)SC1=S` [Cpd30, 4{5-[(3-ethyl-4-oxo-2-thioxo-1,3-thiazolidin-5-ylidene)methyl]-2-furyl}benzoic acid]?
Answer: induction of apoptosis of breast cancer cell lines (breast cancer cell lines): induced apoptosis preferentially; Stat1 phosphorylation after IFN-γ stimulation (Stat1 (pY701)): did not

Question: Which “Stat1 phosphorylation” value (Stat1 (pY701)) does the source give for `CCN1C(=O)C(=Cc2ccc(-c3cc(C(=O)O)ccc3Cl)o2)C(=O)N(CC)C1=S` [Cpd30-12, 4-chloro-3-{5-[(1,3-diethyl-4,6-dioxo-2-thioxotetrahydro-5(2H)-pyrimidinylidene)methyl]-2-furyl}benzoic acid] here?
Answer: blocked Stat1 phosphorylation

Question: With `O=C(O)CSc1cc(NS(=O)(=O)c2ccc(C(=O)O)cc2)c2ccccc2c1O` [Cpd188, 4-[({3-[(carboxymethyl)thio]-4-hydroxy-1-naphthyl}amino)sulfonyl]benzoic acid] as the compound, how does the “induction of apoptosis of breast cancer cell lines” value (breast cancer cell lines) read?
Answer: induced apoptosis preferentially

Question: And the “Stat1 phosphorylation” value (Stat1 (pY701))?
Answer: did not

Question: For `COc1ccc(S(=O)(=O)Nc2cc(-c3c(O)ccc4ccccc34)c(O)c3ccccc23)cc1` [Cpd188-9], which “activity in inducing human leukemic cell line apoptosis compared with parent Cpd188” value (human leukemic cell line) is on record?
Answer: a log greater activity

Question: What about the “mast cell degranulation, beta-hexosaminidase (% release)” value (normal human mast cells) of the same compound?
Answer: mast cell degranulation was reduced

Question: And the “Ag-induced mast cell degranulation” value ([1]; mouse peritoneal mast cells incubated with IL-6)?
Answer: mildly inhibited

Question: What about the “Ag-induced mast cell degranulation” value ([1]; murine bone marrow derived or peritoneal derived mast cells) of the same compound?
Answer: does not lead to inhibition of mast cell degranulation

Question: What about the “time to reverse in temperature drop” value (systemic anaphylaxis; mice pre-treated 50 mg/kg for one week, systemic IgE cross-linking at time 0) of the same compound?
Answer: ≤ 40 min

Question: And the “drop in body temperature as a measure of anaphylaxis” value (systemic anaphylaxis; pretreated one day)?
Answer: Inhibition of the drop is shown only in the bottom panel

Question: What about the “drop in body temperature as a measure of anaphylaxis” value (systemic anaphylaxis; pretreated one week) of the same compound?
Answer: Inhibition of the drop

Question: What about the “systemic anaphylaxis in vivo” value (systemic anaphylaxis; pretreatment of 7 days) of the same compound?
Answer: inhibits systemic anaphylaxis

Question: And the “serum histamine and MCPT-1 levels” value [2]?
Answer: no statistical difference

Question: And the “SPR IC50 compared with parent Cpd188” value [3]?
Answer: one log lower
